According to patent US9624182B2, “Compounds as lysophosphatidic acid receptor antagonists” (Amira Pharmaceuticals, Inc., priority 2009, dated 2017):

Target: T1, human LPA1 (Homo sapiens, UniProt Q92633)
T1 construct: the full-length cDNA for human LPA1 was obtained by PCR of the reverse transcription reaction; expressed in transfected cells
Assay: LPA1 calcium flux assay
Format: cell-based
Settings: CHO cells expressing human LPA1, stimulated with 10 nM LPA; read-out: HLPA1 Ca Flux IC50
Method in brief: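 CHO cells stably expressing cloned human LPA1, serum-starved overnight, loaded with Calcium 4 dye 1 h at 37 °C in HBSS/20 mM Hepes with 0.3% fatty-acid-free HSA. Compounds preincubated 30 min at room temperature, then cells stimulated with 10 nM LPA; intracellular Ca2+ read by fluorescence. IC50 from titration curves.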

T1 sequence (Q92633 whole entry): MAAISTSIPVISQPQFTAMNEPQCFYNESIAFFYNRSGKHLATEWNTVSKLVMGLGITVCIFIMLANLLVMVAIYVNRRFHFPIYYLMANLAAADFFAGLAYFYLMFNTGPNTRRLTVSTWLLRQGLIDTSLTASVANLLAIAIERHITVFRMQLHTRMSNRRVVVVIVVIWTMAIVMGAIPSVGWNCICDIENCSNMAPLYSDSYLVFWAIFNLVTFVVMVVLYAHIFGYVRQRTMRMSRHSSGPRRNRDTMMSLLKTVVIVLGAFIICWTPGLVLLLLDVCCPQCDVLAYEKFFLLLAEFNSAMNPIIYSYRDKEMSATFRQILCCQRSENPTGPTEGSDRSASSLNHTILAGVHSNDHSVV

**Q.** How did the IC50 turn out when Cc1noc(-c2ccc(-c3ccc(C4(C(=O)O)CC4)cc3)cc2)c1C(=O)CCc1ccccc1 [Compound 1-157, 1-{4′-[3-Methyl-4-(3-phenyl-propionyl)-isoxazol-5-yl]-biphenyl-4-yl}-cyclopropanecarboxylic acid] was run?
**A.** The IC50 was 1000 to 50000 nM.

**Q.** With Cc1noc(-c2ccc(-c3ccc(C4(C(=O)O)CC4)cc3)cc2)c1C(O)/C=C/c1ccccc1 (stereo not shown) [Compound 1-158, 1-{4′-[4-((E)-1-Hydroxy-3-phenyl-allyl)-3-methyl-isoxazol-5-yl]-biphenyl-4-yl}-cyclopropanecarboxylic acid] as the compound, how does the IC50 read?
**A.** Its IC50 is < 300 nM.

**Q.** Which IC50 does the source give for Cc1noc(-c2ccc(-c3ccc(C4(C(=O)O)CC4)cc3)cc2)c1C(=O)CCc1cccc(C(F)(F)F)c1 [Compound 1-160, 1-(4′-{3-Methyl-4-[3-(3-trifluoromethyl-phenyl)-propionyl]-isoxazol-5-yl}-biphenyl-4-yl)-cyclopropanecarboxylic acid] here?
**A.** Its IC50 is 1000 to 50000 nM.

**Q.** For Cc1noc(-c2ccc(-c3ccc(C4(C(=O)O)CC4)cc3)cc2)c1C(O)/C=C/c1cccc(C(F)(F)F)c1 (stereo not shown) [Compound 1-161, 1-(4′-{4-[(E)-1-Hydroxy-3-(3-trifluoromethyl-phenyl)-allyl]-3-methyl-isoxazol-5-yl}-biphenyl-4-yl)-cyclopropanecarboxylic acid], which IC50 is on record?
**A.** Its IC50 is < 300 nM.

**Q.** Cc1noc(-c2ccc(-c3ccc(CC(=O)O)cc3)cc2)c1NC(C)CCc1cccc(F)c1 (stereo not shown) [Compound 1-165, (4′-{4-[3-(3-Fluoro-phenyl)-1-methyl-propylamino]-3-methyl-isoxazol-5-yl}-biphenyl-4-yl)-acetic acid] was tested. Which IC50 did it give?
**A.** Its IC50 is < 300 nM.

**Q.** With CCCC(O)c1c(C)noc1-c1ccc(-c2ccc(C3(C(=O)O)CC3)cc2)cc1 (stereo not shown) [Compound 1-166, 1-{4′-[4-(1-Hydroxy-butyl)-3-methyl-isoxazol-5-yl]-biphenyl-4-yl}-cyclopropanecarboxylic acid] as the compound, how does the IC50 read?
**A.** The IC50 was 1000 to 50000 nM.

**Q.** For Cc1noc(-c2ccc(-c3ccc(CC(=O)O)cc3)cc2)c1CC(F)(F)CCc1ccccc1 [Compound 1-170, {4′-[4-(2,2-Difluoro-4-phenyl-butyl)-3-methyl-isoxazol-5-yl]-biphenyl-4-yl}-acetic acid], which IC50 is on record?
**A.** The IC50 was < 300 nM.

**Q.** For CCC(C(=O)O)c1ccc(-c2ccc(-c3onc(C)c3C(O)CCCc3ccccc3C(F)(F)F)cc2)cc1 (stereo not shown) [Compound 1-171, 2-(4′-{4-[1-Hydroxy-4-(2-trifluoromethyl-phenyl)-butyl]-3-methyl-isoxazol-5-yl}-biphenyl-4-yl)-butyric acid], which IC50 is on record?
**A.** Its IC50 is 300 to 1000 nM.

**Q.** Which IC50 does the source give for Cc1noc(-c2ccc(-c3ccc(C4(CC(=O)O)CC4)cc3)cc2)c1CC(F)(F)CCc1ccccc1 [Compound 1-175, (1-{4′-[4-(2,2-Difluoro-4-phenyl-butyl)-3-methyl-isoxazol-5-yl]-biphenyl-4-yl}-cyclopropyl)-acetic acid] here?
**A.** The IC50 was < 300 nM.

**Q.** Which IC50 does the source give for Cc1noc(-c2ccc(-c3ccc(CC(=O)O)cc3)cc2)c1NC(C)CCc1cccc(C(F)(F)F)c1 (stereo not shown) [Compound 1-181, (4′-{3-Methyl-4-[1-methyl-3-(3-trifluoromethyl-phenyl)-propylamino]-isoxazol-5-yl}-biphenyl-4-yl)-acetic acid] here?
**A.** The IC50 was 300 to 1000 nM.

**Q.** With Cc1noc(-c2ccc(-c3ccc(CC(=O)O)cc3)cc2)c1NC(C)CCc1cccc(Cl)c1 (stereo not shown) [Compound 1-182, (4′-{4-[3-(3-Chloro-phenyl)-1-methyl-propylamino]-3-methyl-isoxazol-5-yl}-biphenyl-4-yl)-acetic acid] as the compound, how does the IC50 read?
**A.** Its IC50 is < 300 nM.

**Q.** For Cc1noc(-c2ccc(-c3ccc(C4(CC(=O)O)CC4)cc3)cc2)c1NC(C)CCc1cccc(C(F)(F)F)c1 (stereo not shown) [Compound 1-183, [1-(4′-{3-Methyl-4-[1-methyl-3-(3-trifluoromethyl-phenyl)-propylamino]-isoxazol-5-yl}-biphenyl-4-yl)-cyclopropyl]-acetic acid], which IC50 is on record?
**A.** Its IC50 is < 300 nM.

**Q.** With Cc1noc(-c2ccc(-c3ccc(C4(CC(=O)O)CC4)cc3)cc2)c1NC(C)CCc1cccc(Cl)c1 (stereo not shown) [Compound 1-184, [1-(4′-{4-[3-(3-Chloro-phenyl)-1-methyl-propylamino]-3-methyl-isoxazol-5-yl}-biphenyl-4-yl)-cyclopropyl]-acetic acid] as the compound, how does the IC50 read?
**A.** Its IC50 is < 300 nM.
